Results as given in ChEMBL document CHEMBL1201862, “PubChem BioAssay data set” (2004).
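Values below derive from 48-hour exposures of cells grown in 96-well plates, with endpoints linearly interpolated between the two concentrations bracketing the appropriate inhibition level. GI50 = concentration required for 50% inhibition of growth.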 Activity calls are given as the source filed them. Cut-off read from the data, not from the text of the source: active = GI50 up to about 1.1 µM and inactive = higher.

How the values were obtained:
Experiment in all cases: NCI anticancer screen, dose series, 48 h
OVCAR-5 = test system: OVCAR-5
KM12 = test system: KM12
SNB-75 = test system: SNB-75
MDA-N = test system: MDA-N
U-251 = test system: U-251
HL-60 = test system: HL-60
EKVX = test system: EKVX
MDA-MB-435 = test system: MDA-MB-435
786-0 = test system: 786-0
SK-MEL-5 = test system: SK-MEL-5
LOX IMVI = test system: LOX IMVI
HCC 2998 = test system: HCC 2998
PC-3 = test system: PC-3
RPMI-8226 = test system: RPMI-8226
HOP-62 = test system: HOP-62
TK-10 = test system: TK-10
BT-549 = test system: BT-549
Malme-3M = test system: Malme-3M
IGROV-1 = test system: IGROV-1
OVCAR-3 = test system: OVCAR-3

Measured: GI50

O=C1c2ccccc2C(=O)c2c(NC3CCCCC3)ccc(Nc3ccc(S(=O)(=O)O)cc3)c21
inactive: OVCAR-5 > 100 µM | KM12 30.9 µM | SNB-75 > 100 µM | MDA-N 46 µM | U-251 29.6 µM | HL-60 31.6 µM | EKVX 17 µM | MDA-MB-435 39.1 µM | 786-0 45.7 µM | SK-MEL-5 63 µM | LOX IMVI 32.7 µM | HCC 2998 26.5 µM | PC-3 22.6 µM | RPMI-8226 45.2 µM | HOP-62 > 100 µM | TK-10 > 100 µM | BT-549 43.8 µM | Malme-3M 23.4 µM | IGROV-1 32.7 µM | OVCAR-3 28.2 µM

Cc1ccc(OCC2OC(n3cnc4c(Br)nc(Br)nc43)CC2Oc2ccc(C)cc2)cc1 (stereo not given)
inactive: OVCAR-5 12.3 µM | KM12 3.08 µM | SNB-75 3.09 µM | MDA-N 2.94 µM | U-251 2.24 µM | HL-60 1.91 µM | EKVX 2.05 µM | MDA-MB-435 5.85 µM | 786-0 3.02 µM | SK-MEL-5 6.31 µM | LOX IMVI 1.93 µM | HCC 2998 2.6 µM | PC-3 2.94 µM | RPMI-8226 9.29 µM | HOP-62 3.61 µM | TK-10 21.8 µM | BT-549 18.6 µM | Malme-3M 3.58 µM | IGROV-1 5.04 µM | OVCAR-3 5.6 µM

CCN1CC2=C(OC(N)=C(C#N)C2c2ccc(Cl)cc2)/C(=C/c2ccc(Cl)cc2)C1 (stereo not given)
inactive: OVCAR-5 20.1 µM | KM12 33.2 µM | SNB-75 12.5 µM | MDA-N 35 µM | U-251 16.4 µM | HL-60 > 100 µM | EKVX 39.5 µM | MDA-MB-435 43.3 µM | 786-0 12.1 µM | SK-MEL-5 13.1 µM | LOX IMVI 26.8 µM | HCC 2998 26.7 µM | PC-3 18.2 µM | RPMI-8226 18 µM | HOP-62 18.2 µM | TK-10 21 µM | BT-549 70.8 µM | Malme-3M 18.9 µM | IGROV-1 20.8 µM | OVCAR-3 21.8 µM

COc1ccc(-c2ncnc(-c3ccc(OC)c(OC)c3)n2)cc1OC
inactive: OVCAR-5 > 100 µM | KM12 > 100 µM | SNB-75 > 100 µM | MDA-N > 100 µM | U-251 > 100 µM | HL-60 > 100 µM | EKVX > 100 µM | MDA-MB-435 > 100 µM | 786-0 > 100 µM | SK-MEL-5 > 100 µM | LOX IMVI > 100 µM | HCC 2998 > 100 µM | PC-3 > 100 µM | RPMI-8226 > 10 µM | HOP-62 > 100 µM | TK-10 > 100 µM | BT-549 > 100 µM | Malme-3M > 100 µM | IGROV-1 > 100 µM | OVCAR-3 > 100 µM

CN(C)/C=C/c1ccnc2c1C(=O)c1ccccc1C2=O
inactive: OVCAR-5 17.3 µM | KM12 9.66 µM | SNB-75 5.33 µM | MDA-N 1.32 µM | U-251 15.2 µM | HL-60 10.9 µM | EKVX 18.3 µM | MDA-MB-435 1.35 µM | 786-0 17.2 µM | SK-MEL-5 1.28 µM | LOX IMVI 2.79 µM | HCC 2998 7.64 µM | PC-3 8 µM | RPMI-8226 3.48 µM | HOP-62 15.6 µM | TK-10 > 92.7 µM | BT-549 3.59 µM | Malme-3M 2.03 µM | IGROV-1 12.2 µM | OVCAR-3 3.74 µM

CCOP(=O)(OCC)/C(C#N)=C\c1cccc2ccccc12
inactive: OVCAR-5 > 100 µM | KM12 > 74.8 µM | SNB-75 22.4 µM | MDA-N 40.6 µM | U-251 > 67.5 µM | HL-60 23 µM | EKVX 31.9 µM | MDA-MB-435 34.7 µM | 786-0 > 71.4 µM | SK-MEL-5 39.5 µM | LOX IMVI 20.9 µM | HCC 2998 > 58.5 µM | PC-3 64 µM | RPMI-8226 23 µM | HOP-62 > 56.6 µM | TK-10 > 100 µM | BT-549 51.9 µM | Malme-3M 42.7 µM | IGROV-1 > 82.4 µM | OVCAR-3 > 55.7 µM

Oc1c2ccccc2c2c3c(cccc13)N=N2 [SP-600125]
inactive: OVCAR-5 24.4 µM | KM12 2.62 µM | SNB-75 16.9 µM | MDA-N 15 µM | U-251 23.1 µM | HL-60 42.1 µM | EKVX 20 µM | MDA-MB-435 12.8 µM | 786-0 27.1 µM | SK-MEL-5 14.6 µM | LOX IMVI 12.8 µM | HCC 2998 9.62 µM | PC-3 23.3 µM | RPMI-8226 18.8 µM | HOP-62 69.3 µM | TK-10 5.93 µM | BT-549 30.8 µM | Malme-3M 16.4 µM | IGROV-1 11.4 µM | OVCAR-3 15.3 µM
